Tests used:
[1] = molecular target: Tyrosine-protein kinase JAK2 (Homo sapiens, UniProt O60674); test: (§1) JAK Enzyme Assay: The activity of the isolated recombinant JAK1 and JAK2 kinase domain was measured by monitoring phosphorylation of a peptide derived from JAK3 ([…] fluorescently labeled on the N-terminus with 5-carboxyfluorescein) using the Caliper LabChip® technology (Caliper Life Sciences, Hopkinton, Mass.). […] Reactions were incubated at 22° C. in 384-well polypropylene microtiter plates for 30 minutes and then stopped by addition of 25 μL of an EDTA containing solution (100 mM HEPES buffer (pH 7.2), 0.015% Brij-35, 150 mM EDTA), resulting in a final EDTA concentration of 50 mM. After termination of the kinase reaction, the proportion of phosphorylated product was determined as a fraction of total peptide substrate using the Caliper LabChip® 3000 according to the manufacturer's specifications.
[2] = molecular target: Tyrosine-protein kinase JAK1 (Homo sapiens, UniProt P23458); test: as §1
Tyrosine-protein kinase JAK1, sequence (P23458 whole entry): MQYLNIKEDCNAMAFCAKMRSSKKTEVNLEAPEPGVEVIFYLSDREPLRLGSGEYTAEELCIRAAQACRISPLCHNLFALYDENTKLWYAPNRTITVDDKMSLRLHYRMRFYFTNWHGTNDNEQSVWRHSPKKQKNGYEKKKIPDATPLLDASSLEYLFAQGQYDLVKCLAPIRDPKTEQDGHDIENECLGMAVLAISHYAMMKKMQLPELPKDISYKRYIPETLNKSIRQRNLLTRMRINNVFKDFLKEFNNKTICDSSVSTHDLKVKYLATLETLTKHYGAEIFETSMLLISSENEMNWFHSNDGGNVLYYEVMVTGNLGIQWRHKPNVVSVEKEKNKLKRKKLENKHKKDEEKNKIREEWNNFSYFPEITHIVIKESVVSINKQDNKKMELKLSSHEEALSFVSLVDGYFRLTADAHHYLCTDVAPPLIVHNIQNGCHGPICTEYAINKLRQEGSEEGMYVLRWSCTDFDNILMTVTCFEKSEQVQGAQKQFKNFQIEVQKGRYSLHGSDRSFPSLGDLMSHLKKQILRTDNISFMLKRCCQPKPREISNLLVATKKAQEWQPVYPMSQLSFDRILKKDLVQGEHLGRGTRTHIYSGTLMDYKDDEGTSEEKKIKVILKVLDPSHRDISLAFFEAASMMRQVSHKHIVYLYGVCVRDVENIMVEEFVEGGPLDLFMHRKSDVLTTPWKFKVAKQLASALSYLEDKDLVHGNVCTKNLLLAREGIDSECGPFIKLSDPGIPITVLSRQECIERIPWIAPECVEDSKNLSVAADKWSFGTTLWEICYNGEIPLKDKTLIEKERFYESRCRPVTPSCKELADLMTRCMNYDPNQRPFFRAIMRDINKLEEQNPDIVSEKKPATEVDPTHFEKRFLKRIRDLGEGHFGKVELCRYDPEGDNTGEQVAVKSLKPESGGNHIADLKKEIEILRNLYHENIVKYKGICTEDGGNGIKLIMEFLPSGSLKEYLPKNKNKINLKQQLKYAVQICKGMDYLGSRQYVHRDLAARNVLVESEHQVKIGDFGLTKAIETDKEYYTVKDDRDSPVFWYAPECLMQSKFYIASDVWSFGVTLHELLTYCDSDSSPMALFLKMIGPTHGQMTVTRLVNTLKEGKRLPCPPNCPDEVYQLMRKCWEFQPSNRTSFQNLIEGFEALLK

Tyrosine-protein kinase JAK2, sequence (O60674 whole entry, the tested form may be a part): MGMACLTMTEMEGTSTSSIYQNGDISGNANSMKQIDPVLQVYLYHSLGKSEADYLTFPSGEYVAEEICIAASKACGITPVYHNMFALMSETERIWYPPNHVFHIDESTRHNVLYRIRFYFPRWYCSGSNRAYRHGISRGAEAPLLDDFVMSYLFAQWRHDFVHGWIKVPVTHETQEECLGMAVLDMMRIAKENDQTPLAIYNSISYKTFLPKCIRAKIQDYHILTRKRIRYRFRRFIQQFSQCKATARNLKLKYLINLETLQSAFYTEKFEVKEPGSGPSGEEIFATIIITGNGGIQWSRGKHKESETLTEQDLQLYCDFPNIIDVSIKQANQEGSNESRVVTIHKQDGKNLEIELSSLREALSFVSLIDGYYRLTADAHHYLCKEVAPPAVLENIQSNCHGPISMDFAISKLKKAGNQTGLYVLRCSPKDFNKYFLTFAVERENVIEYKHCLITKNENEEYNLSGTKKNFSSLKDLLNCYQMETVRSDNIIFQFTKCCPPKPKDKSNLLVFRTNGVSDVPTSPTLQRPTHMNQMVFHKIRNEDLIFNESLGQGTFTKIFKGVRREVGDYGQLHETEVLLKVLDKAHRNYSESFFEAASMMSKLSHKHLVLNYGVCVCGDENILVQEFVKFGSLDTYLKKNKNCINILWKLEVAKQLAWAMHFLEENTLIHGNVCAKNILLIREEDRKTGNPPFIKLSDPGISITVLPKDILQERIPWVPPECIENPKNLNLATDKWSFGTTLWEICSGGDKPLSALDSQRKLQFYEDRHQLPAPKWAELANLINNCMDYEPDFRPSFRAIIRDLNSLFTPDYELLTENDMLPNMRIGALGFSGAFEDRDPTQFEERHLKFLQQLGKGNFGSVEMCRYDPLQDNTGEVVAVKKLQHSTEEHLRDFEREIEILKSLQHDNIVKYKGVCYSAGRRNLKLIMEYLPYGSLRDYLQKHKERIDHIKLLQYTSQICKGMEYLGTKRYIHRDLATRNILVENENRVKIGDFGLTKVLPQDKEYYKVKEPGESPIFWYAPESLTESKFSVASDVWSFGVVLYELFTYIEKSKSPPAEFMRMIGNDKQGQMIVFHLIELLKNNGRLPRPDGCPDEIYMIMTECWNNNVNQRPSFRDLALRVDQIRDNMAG

Structure (SMILES) | Ki [1] [pM] | Ki [2] [pM]
CN(CC1(C#N)CC1)C1CCN(C(=O)Cn2cc(NC(=O)c3cnn4cccnc34)c(-c3cc(Cl)ccc3OC(F)F)n2)CC1 | 640 | –
N#C[C@H]1CCCN(C2CCN(C(=O)Cn3cc(NC(=O)c4cnn5cccnc45)c(-c4cc(Cl)ccc4OC(F)F)n3)CC2)C1 | 760 | 300
C[N+](C)(CCCc1ccccc1)C1CCN(C(=O)Cn2cc(NC(=O)c3cnn4cccnc34)c(-c3cc(Cl)ccc3OC(F)F)n2)CC1 | 2900 | 1210
CN(C)C1CCN(C(=O)C2CCN(c3nc(-c4cc(Cl)ccc4OC(F)F)c(NC(=O)c4cnn5cccnc45)s3)CC2)CC1 | 860 | 890
O=C(Nc1cn(CC(=O)N2CCC(N3CC[S+]([O-])CC3)CC2)nc1-c1cc(Cl)ccc1OC(F)F)c1cnn2cccnc12 | 630 | 230
CN1CCC(n2cc(NC(=O)c3c(N)nn4cccnc34)c(-c3cc(Cl)ccc3OC(F)F)n2)CC1 | – | 760
CCOC(=O)CCN1CCN(C(=O)Cn2cc(NC(=O)c3cnn4cccnc34)c(-c3cc(Cl)ccc3OC(F)F)n2)CC1 | – | 490
Nc1nn2cccnc2c1C(=O)Nc1cn(CC(=O)N2CC[C@@H](O)C2)nc1-c1cc(Cl)ccc1OC(F)F | 130 | –
